According to patent US20190328857A1, “CALR AND JAK2 VACCINE COMPOSITIONS” (IO Biotech ApS, priority 2016, published 2019):

What was measured:
Format in all cases: cell-based, human
[1] = test system: CALRLong1-specific T-cells; test: Intracellular cytokine staining of CALRLong1-specific T-cell culture stimulated with peptide; settings: after three stimulations with autologous dendritic cells
Experimental: Fresh PBMCs were first enriched for CD14+ cells using MACS CD14 MicroBeads (Miltenyi Biotech GmbH, Bergisch Gladbach, Germany). This was considered day 0. The resulting monocyte-depleted cell culture was termed peripheral blood lymphocytes (PBL). The enriched cells were cultured using CellGro (CellGenix GmbH, Freiburg, Germany), and stimulated with GM-CSF (1000 U/ml) and IL-4 (250 U/ml) (both PeproTech, Rocky Hill, N.J., USA). The next day, to generate fast dendritic cells (fastDC), we treated half of the enriched cells with a maturation cocktail comprising IFN-γ (1000 U/ml) (PeproTech, Rocky Hill, N.J., USA), PolyI:C (20 μg/ml) (Sigma-Aldrich, St. Louis, Mo., USA) and CALRLong1 peptide. PBL were cultured overnight in X-VIVO medium (Lonza Group Ltd., Basel, Switzerland) and then stimulated with half of the fastDC. The other half of the fastDC were frozen for later use.
The other half of the enriched cells were cultured until day 7, at which time these cells were treated with the same maturation cocktail as above, to generate mature dendritic cells (mDC). The next day, these mDC were used to stimulate PBLs. On day 9, IL-2 (120 U/mL) (Novartis, Basel, Switzerland) and IL-7 (40 U/ml) (PeproTech, Rocky Hill, N.J., USA) was added. On day 14, we thawed the fastDC that had been frozen on day 2, and used these cells to stimulate the PBL. On day 16 and day 24 we added, IL-2 and IL-7 in the concentrations mentioned above.
At day 38 of the T-cell culture, we stimulated the T-cells with CALRLong1 peptide for 4 h and next isolated IFN-γ secreting cells using the MACS IFN-γ secretion assay. The isolated cells were expanded using a rapid expansion protocol. The vast majority of cells that reacted to CALRLong1 peptide stimulation were CD4^+ T-cells; thus, we isolated CD4^+ T cells from the REP culture using the EasySep Human CD4 isolation Kit (StemCell Technologies, Inc., Vancouver, BC, Canada). The enriched CD4^+ T-cells were then cloned by limiting dilution, and growing T-cell clones were rapidly expanded using feeder cells and high dose IL-2 (6000 u/ml). T-cell receptor clonotyping of the cloned cells was performed by denaturing gradient gel electrophoresis as previously described.
Frozen T-cells were thawed one day prior to assaying, and in experiments examining CD107a expression, a CD107a-PE antibody was added to cells directly after addition of peptide or target cells. After one hour of stimulation, protein-transport inhibitor Brefeldin A (BD Biosciences, San Jose, Calif., USA) was added to the cells which were then stimulated for four h. Cells were stained with CD3-APC-H7, CD4-FITC, CD8-PerCP, IFN-γ-APC, TNF-α-BV421 and Fixable Viability Stain 510 (BD Biosciences, San Jose, Calif., USA), permeabilized and washed with Permeabilization Reagent/Diluent and fixation-permeabilization buffer (AH Diagnostics, Aarhus, Denmark). Cells were acquired with a FACS Canto II (BD Biosciences) and analyzed using FACSDiva software. All effector cell stimulations were run in triplicate wells if not otherwise specified.

PBMC from healthy donors [2] = test: IFN-γ ELISPOT on PBMC from healthy donors; settings: for healthy donors with a significant response in IFN-γ ELISPOT / healthy donors with a significant response in IFN-γ ELISPOT, percentage: of 21 (CALRLong1), 23 (CALRLong2), 9 (CALRLong4), 7 (CALRLong5) analyzed
Excerpt: (§1) The ELISPOT assay is based on the detection of antigen induced release of cytokines—most often IFN-γ—by single T-cells upon triggering of its T-cell receptor. Reactivity of a single T-cell can be detected and quantified via binding of the respective cytokine on special nitrocellulose filter plates. When a T-cell recognizes the peptide epitope examined, the T-cell releases cytokines that are detected by a colorimetric reaction using an enzyme conjugated to a secondary cytokine specific antibody. The reaction product is visible as a spot. Ideally, each spot represents the cytokines secreted by a single activated cell. ELISPOTs were performed and analyzed as described previously (Munir et al., 2013). PBMCs were tested in different concentrations to ensure an optimal response. The distribution-free resampling method, described by Moodie et al., was used for statistical analyses and a p-value ≤0.05 was deemed a T-cell response (Moodie et al., 2010).
PBMC from healthy donors were analyzed by IFN-γ ELISPOTs as described in Example 1 for immune responses against the CARL-mutant epitopes CALRLong1 ([…]), CALRLong2 ([…]), CALRLong4 ([…]) and CALRLong5 ([…]). […]

[3] = test system: PBMC / T-cells from CALRmut MPN patients; test: Intracellular cytokine staining of patient PBMC and of DC-stimulated T-cell culture; settings: PBMC from patient C39
Excerpt: Next, we chose to analyze PBMC from four patients with a response against CALR Long1 and CALR Long2 peptides using intracellular cytokine staining. Although this method is less sensitive than ELISPOT, it allows elucidating which immune cells secrete the cytokine identified in ELISPOT. Hereby, we could determine whether the reacting cells were T-cells and, if so, if the responding cells were CD4 T-cells or CD8 T-cells. In short, cells were stimulated with CALR Long1 or with a scrambled peptide ([…]) as control. For surface markers we employed 4 μl NIR, 10 μl CD4 PerCP, 2 μl CD8 Pacific Blue, and 10 μl CD3 FITC and for intracellular staining we used 2 μl anti-TNF-α and anti IFN-γ antibodies conjugated with either PE-Cy7 or APC. Washing, permeabilization and staining procedures followed previously described methods (Munir, Andersen et al., 2013). […] To confirm that the responses identified indeed were T-cell responses against CALR Long1, we generated dendritic cells from patient C42 using previously described methods. Autologous PBMC were stimulated three times with the dendritic cells, which had been pulsed with CALR Long1, and we hereby generated a CALR Long1 specific T-cell culture. […] The frequent detection of T-cell responses indicate, that the CALR mutations encode highly immunogenic cancer antigens, which represent ideal targets for anti-cancer immune therapy.

[4] = test system: PBMC from CALR-mutated MPN patients; test: IFN-γ ELISPOT for spontaneous T-cell responses in PBMC from CALR-mutated MPN patients
Excerpt: The study was approved by the local ethics committee, and all patients signed informed consent, in accordance with the Helsinki Declaration before study participation. We included 31 CALRmut MPN patients with the following diagnoses: ET (n=13), PMF (n=12), post-ET MF (n=4), or prefibrotic MF (n=2). Peripheral blood mononuclear cells (PBMC) were isolated with Lymphoprep and frozen in fetal calf serum with 10% dimethyl sulfoxide. First, we scrutinized PBMC from two MPN patients for the presence of spontaneous T-cell responses against two CALR derived peptides, CALR Long1 ([…], SEQ ID NO: 2) and CALR Long2 ([…], SEQ ID NO: 3) using the highly sensitive and solid interferon gamma (IFN-γ) Enzyme-Linked ImmunoSPOT (ELISPOT) secretion assays (FIGS. 1A and 1C). The ELISPOT has proven to be the central assay in studies focusing on identification on novel tumor antigens by the characterization of novel tumor antigen responses in PBMC from cancer patients. Thus, this assay has previously been utilized for the identification of novel tumor antigens based on spontaneous immunity in cancer patients (Andersen et al., 2005).
as §1
After the promising responses in the first two patients we analyzed PBMC from additional 29 CALR-mutated MPN patients. […] Of the 24 evaluable patients, 10 had ET and 14 had MF; the latter group comprised 11 patients with PMF, 2 with post-ET MF, and 1 with prefibrotic MF. […] Furthermore, we examined PBMC from two patients in a tumor necrosis factor alpha (TNF-α) ELISPOT.

PBMC from healthy donors [5] = test: TNF-α ELISPOT on PBMC from healthy donors; settings: ten healthy controls analyzed per peptide
Excerpt: Of note, all patients with a TNF-α response against CALRLong1 and CALRLong2 did also display an IFN-g response in ELISPOT (FIGS. 14-15).

[6] = test system: PBMCs from the CALRmut donor; test: Spontaneous ex-vivo ELISPOT, 48 hour assay; settings: high background, rules of Moodie et al.
Experimental: We established a CALRLong1-specific T-cell culture from a CALRmut patient with a strong […] T-cell response against CALRLong1 peptide. PBL were stimulated three times with autologous dendritic cells, and T-cells were analyzed using intracellular cytokine staining (ICS). […] However, CD4^+ T cells responded to CALRLong1 (FIG. 7). […] Since CALRLong4 peptide comprises the shared 36 amino acid C-terminus found in all CALRmut patients, we tested PBMCs from the donor for a spontaneous ex-vivo ELISPOT response in a 48 hour assay.

Sequence | response of CD4^+ T cells of the CALRLong1 bulk culture to peptide stimulation [1] | immune responses of healthy donors in IFN-γ ELISPOT (PBMC from healthy donors [2]) | healthy donors with a significant response in IFN-γ ELISPOT (PBMC from healthy donors [2]) | healthy donors with a significant response in IFN-γ ELISPOT, percentage (PBMC from healthy donors [2]) [%] | type of T-cell response, intracellular cytokine staining [3] | patients that responded in IFN-γ ELISPOT, percentage ([4]; 18 evaluable patients for CALR Long1, 24 for CALR Long2) [%] | patients that responded in IFN-γ ELISPOT ([4]; 18 evaluable patients for CALR Long1, 24 for CALR Long2, p-value ≤0.05 deemed a T-cell response) [patients] | response confirmed in additional ELISPOT ([4]; samples from 5 of the responding patients retested) [patients] | healthy controls with a significant TNF-α response (PBMC from healthy donors [5]) | spontaneous ex-vivo ELISPOT response [6]
TRRKMRRKMSPARPRTSCREACLQGWTEA (listed as Homo sapiens) [CALRLong2] | did not respond | strong immune responses | 18 | 78 | CD4 T-cell response | 42 | 10 | 4 | Five | 
RRMRRTRRKMRRKMSPARPRTSCREACLQGWTEA (listed as Homo sapiens) [CALRLong4] | reacted | strong immune responses | 9 | 100 |  |  |  |  |  | significant response
